Where two headings read alike, the source gives them in different places.
Legend:
[1] = molecular target: CtCel7A (Chaetomium thermophilum, UniProt A7WNU1); experiment: Inhibition of synergistic hydrolysis of 14C-BC by CtCel7A (supplemented with EG TrCel5A); type: biochemical; details: 14C-BC substrate, read-out: IC50 for cellobiose
Method: To study the cellobiose inhibition of GH7 CBHs, the synergistic hydrolysis of ^14C-BC in the presence of added cellobiose was followed (Figure 3, Additional file 1: Figures S1 and S2). Because the cellobiose inhibition of the EG TrCel5A is much weaker than that of GH7 CBHs, the inhibition of synergistic hydrolysis apparently reflects the inhibition of CBH. The strength of cellobiose inhibition was analyzed using plots of (DCB/DCB=0) versus [cellobiose], where DCB and DCB=0 represent the degree of conversion of ^14C-BC in the presence and absence of cellobiose, respectively (Figure 4, Additional file 1: Figure S3). In the case of experiments without added cellobiose, the reactions were provided with N188BG to prevent the inhibition of the CBH by the cellobiose released during hydrolysis. Experiments with no added cellobiose and without BG were also conducted. […] Therefore, the concentration of the cellobiose released during hydrolysis was added to the concentration of externally supplied cellobiose in generating the plots in Figure 4 and Additional file 1: Figure S3. For the calculation of IC50 values, the data were first fitted to hyperbolae:
where [CB] is the concentration of cellobiose; [^14CBC] is the concentration of ^14C-BC used in the experiment; and C1, C2 and H are empirical constants. Equation 5 differs from Equation 1 by the presence of constant H. H was included to improve the fit and is a constant that accounts for the background radioactivity (the degree of conversion that is independent of CBH). The degree of conversion resulting from the activity of the EG was measured in a separate experiment (Additional file 1: Figure S4) and was subtracted from the degree of conversion resulting from the synergistic hydrolysis. Thus, in the case of complete inhibition, H should have a value of zero. […] Provided with the values of C1, C2 and H, the value of IC50 was calculated as follows: […]
Using the time course data measured in the presence and absence of cellobiose, the IC50 values were first found separately for each time point (Figure 4A). […]

[2] = molecular target: T1, TrCel7A (Trichoderma reesei, UniProt P62694); experiment: Cellobiose inhibition of MUL hydrolysis by TrCel7A; type: biochemical; details: Ki for cellobiose, MUL substrate (5 μM)
T1 construct: TrCel7A was purified from the culture filtrate of Tr QM 9414 as described previously; made in house; host or cells: Trichoderma reesei QM 9414 culture filtrate (native producer)
Excerpt: The cellobiose inhibition of GH7 CBHs is most often studied on low-Mw model substrates. However, it has been shown that the inhibition of CBHs acting on low-Mw substrates appears to be much stronger than that on cellulose substrates. The Ki values for cellobiose inhibition of GH7 CBHs measured on low-Mw substrates are in the micromolar range [44, 51, 52], whereas those measured on cellulose are in the low- to high-millimolar range [28, 31, 32]. […] Unfortunately, the inhibition of this enzyme on cellulose has not been studied. We also studied the cellobiose inhibition of GH7 CBHs acting on MUL. The initial rates of MUL hydrolysis measured in the presence and absence of added cellobiose were first analyzed according to Equation 1, and the IC50 values were found using Equation 2. […] The inhibition of MUL hydrolysis is attributable to the binding of cellobiose to the product sites (+1/+2) of TrCel7A [52]. […]
For the inhibition of enzyme acting on the low-Mw substrate, the initial rates of the hydrolysis of MUL in the presence and absence of added cellobiose were followed. […] Reactions were stopped by the addition of NH3 (final concentration 0.1 M), and the released 4-methylumbelliferone was quantified by fluorescence using excitation and emission wavelengths of 360 nm and 450 nm, respectively.

[3] = molecular target: T1, TrCel7A; set-up: method as in PMID 22733813; details: read-out: IC50 for cellobiose, 14C-BC substrate, 25°C; cited from earlier work

CtCel7A, sequence (A7WNU1 entry or part of it): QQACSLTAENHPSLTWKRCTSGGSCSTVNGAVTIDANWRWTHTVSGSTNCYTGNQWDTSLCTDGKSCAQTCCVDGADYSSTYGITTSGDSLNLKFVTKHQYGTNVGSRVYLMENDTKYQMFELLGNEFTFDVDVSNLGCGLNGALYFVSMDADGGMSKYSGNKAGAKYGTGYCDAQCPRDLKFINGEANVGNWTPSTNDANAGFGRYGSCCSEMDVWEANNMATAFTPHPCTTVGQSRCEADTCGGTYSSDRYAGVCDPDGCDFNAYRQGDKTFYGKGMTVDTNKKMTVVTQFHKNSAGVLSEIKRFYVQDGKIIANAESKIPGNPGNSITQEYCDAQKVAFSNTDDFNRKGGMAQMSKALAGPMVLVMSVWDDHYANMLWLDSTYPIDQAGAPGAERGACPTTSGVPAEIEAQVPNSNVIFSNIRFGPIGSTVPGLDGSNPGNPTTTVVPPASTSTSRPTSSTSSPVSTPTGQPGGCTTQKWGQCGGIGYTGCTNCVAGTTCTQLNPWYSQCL
T1 sequence (P62694 18-513): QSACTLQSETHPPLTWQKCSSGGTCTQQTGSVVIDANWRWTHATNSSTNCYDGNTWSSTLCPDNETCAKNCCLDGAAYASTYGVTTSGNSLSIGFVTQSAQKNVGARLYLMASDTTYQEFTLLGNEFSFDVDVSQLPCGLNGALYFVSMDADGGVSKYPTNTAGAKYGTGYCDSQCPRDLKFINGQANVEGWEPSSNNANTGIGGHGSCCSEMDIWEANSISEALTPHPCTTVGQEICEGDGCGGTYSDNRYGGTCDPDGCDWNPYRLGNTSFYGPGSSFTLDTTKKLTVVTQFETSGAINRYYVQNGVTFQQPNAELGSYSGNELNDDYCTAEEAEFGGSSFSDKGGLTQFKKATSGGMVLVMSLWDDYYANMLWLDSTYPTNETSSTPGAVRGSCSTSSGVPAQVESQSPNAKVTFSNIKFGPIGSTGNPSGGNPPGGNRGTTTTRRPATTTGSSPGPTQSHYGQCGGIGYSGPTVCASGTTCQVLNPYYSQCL

`O=C[C@H](O)[C@@H](O)[C@H](O[C@@H]1O[C@H](CO)[C@@H](O)[C@H](O)[C@H]1O)[C@H](O)CO` [cellobiose, Cellobiose] gave an IC50 ([1]; 25°C) of 410 ± 60 µM, an IC50 ([1]; 35°C) of 1080 ± 220 µM and an IC50 ([1]; 50°C, IC50 increased with hydrolysis time) of 2480 ± 910 µM. The Ki ([2]; 35°C) was 40 µM, the Ki ([2]; 50°C) was 124 µM and the IC50 [3] was 380 ± 30 µM.
